Test results from PubChem BioAssay (NCI).
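Assay format: 96-well plates, 48-hour exposure. Abbreviation: GI50, concentration required for 50% inhibition of growth. TGI is the concentration that stops growth completely.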

Key:
Assay in all cases: NCI-60 cell line screen, 48 h
T-47D breast = tested on: T-47D breast
TK-10 renal = tested on: TK-10 renal
HT29 colon = tested on: HT29 colon
OVCAR-3 ovarian = tested on: OVCAR-3 ovarian
SW-620 colon = tested on: SW-620 colon
COLO 205 colon = tested on: COLO 205 colon
A549 NSCLC = tested on: A549 NSCLC
SN12C renal = tested on: SN12C renal
KM12 colon = tested on: KM12 colon
NCI-H23 lung = tested on: NCI-H23 lung

Compound | GI50 (T-47D breast) [µM] | TGI (T-47D breast) [µM] | GI50 (TK-10 renal) [µM] | TGI (TK-10 renal) [µM] | GI50 (HT29 colon) [µM] | TGI (HT29 colon) [µM] | GI50 (OVCAR-3 ovarian) [µM] | TGI (OVCAR-3 ovarian) [µM] | GI50 (SW-620 colon) [µM] | TGI (SW-620 colon) [µM] | GI50 (COLO 205 colon) [µM] | TGI (COLO 205 colon) [µM] | GI50 (A549 NSCLC) [µM] | TGI (A549 NSCLC) [µM] | GI50 (SN12C renal) [µM] | TGI (SN12C renal) [µM] | GI50 (KM12 colon) [µM] | TGI (KM12 colon) [µM] | GI50 (NCI-H23 lung) [µM] | TGI (NCI-H23 lung) [µM]
NC(=O)c1cccc(Nc2nccc(Nc3cccc4[nH]ncc34)n2)c1 | 2.99 | > 17.9 | 20.5 | > 25 | 9.68 | > 25 | 8.31 | 24.6 | 9.09 | > 25 | 5.5 | 17.1 | > 24 | > 25 | 8.74 | > 25 | 9.78 | > 25 | 17.1 | > 25
COc1cccc(C2c3cc4c(cc3OC(N3CCCC3)C2C)OCO4)c1O (stereo not given) |  | > 94.9 |  | 40.1 |  | 14.7 |  | 8.02 |  | > 100 |  | 10.5 |  | > 67.1 |  | 40.7 |  | 19.8 |  | 34.9
Cc1cn2c(/C=N/N=C(N)N)c(-c3cccs3)nc2s1 | 5.51 | 25.9 | 12.9 | 26 | 2.1 | 7.14 | 1.91 | 5.5 | 1.71 | 4.02 | 8.16 | 69.4 | 10.6 | 31.1 | 0.161 | 3.08 | 2.39 | 8.3 | 11.7 | 24
CN(Cc1cc(Cl)cc(Cl)c1)CC(C(=O)c1ccccc1)c1ccccc1 (stereo not given) |  | 8.68 |  | 23 |  | 7.91 |  | 3.65 |  | 2.92 |  | 16.3 |  | > 100 |  | 16.3 |  | 17.5 |  | 7.06
